This note sets out measurements from article PMC12340637, “Transport of Small Aliphatic Amines by Polyspecific Solute Carriers: Deciphering Structure–Function Relationships” (ACS Pharmacology & Translational Science, 2025).

Molecules are shown by their SMILES. Marks after values point to notes of the source that are not given here.

The target in data set [1] is T1, OCT1 (SLC22A1) (Homo sapiens, UniProt O15245).
T1 sequence (O15245 1-554): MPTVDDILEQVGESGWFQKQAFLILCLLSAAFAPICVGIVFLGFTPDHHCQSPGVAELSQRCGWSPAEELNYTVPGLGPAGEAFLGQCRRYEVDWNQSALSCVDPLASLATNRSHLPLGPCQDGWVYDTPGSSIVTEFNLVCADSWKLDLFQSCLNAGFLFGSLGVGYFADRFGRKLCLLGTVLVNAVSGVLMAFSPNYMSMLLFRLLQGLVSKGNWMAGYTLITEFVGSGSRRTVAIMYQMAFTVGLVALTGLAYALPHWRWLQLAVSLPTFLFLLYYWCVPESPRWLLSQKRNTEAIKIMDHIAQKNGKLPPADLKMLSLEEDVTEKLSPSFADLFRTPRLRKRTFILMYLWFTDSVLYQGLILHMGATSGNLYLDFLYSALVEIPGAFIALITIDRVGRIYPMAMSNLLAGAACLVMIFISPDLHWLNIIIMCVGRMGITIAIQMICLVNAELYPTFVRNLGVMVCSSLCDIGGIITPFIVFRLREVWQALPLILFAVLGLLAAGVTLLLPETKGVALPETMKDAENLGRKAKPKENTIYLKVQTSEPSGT
In words: in vitro. Conditions: pH 7.4.

Data set [2] has as its target T2, MATE1 (SLC47A1) (Homo sapiens, UniProt Q96FL8).
T2 sequence (Q96FL8 1-570): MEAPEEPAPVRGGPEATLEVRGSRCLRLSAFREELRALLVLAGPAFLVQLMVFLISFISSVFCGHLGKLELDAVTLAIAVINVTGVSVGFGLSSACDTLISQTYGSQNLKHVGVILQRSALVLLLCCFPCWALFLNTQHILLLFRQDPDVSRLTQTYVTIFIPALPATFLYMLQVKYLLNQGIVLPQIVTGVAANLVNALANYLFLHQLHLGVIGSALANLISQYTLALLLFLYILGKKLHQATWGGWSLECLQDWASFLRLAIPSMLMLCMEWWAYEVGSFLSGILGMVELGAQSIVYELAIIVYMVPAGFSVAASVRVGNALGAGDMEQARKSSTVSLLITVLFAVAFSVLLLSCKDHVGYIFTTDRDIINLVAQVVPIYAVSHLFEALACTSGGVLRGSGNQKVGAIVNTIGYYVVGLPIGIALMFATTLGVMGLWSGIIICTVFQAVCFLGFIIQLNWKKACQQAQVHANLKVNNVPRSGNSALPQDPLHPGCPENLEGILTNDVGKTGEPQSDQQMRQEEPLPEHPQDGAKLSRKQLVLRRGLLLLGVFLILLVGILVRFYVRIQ
In words: in vitro. Conditions: pH 7.4.

Data set [3] has as its target T3, OCT2 (SLC22A2) (Homo sapiens, UniProt O15244).
T3 sequence (O15244 1-555): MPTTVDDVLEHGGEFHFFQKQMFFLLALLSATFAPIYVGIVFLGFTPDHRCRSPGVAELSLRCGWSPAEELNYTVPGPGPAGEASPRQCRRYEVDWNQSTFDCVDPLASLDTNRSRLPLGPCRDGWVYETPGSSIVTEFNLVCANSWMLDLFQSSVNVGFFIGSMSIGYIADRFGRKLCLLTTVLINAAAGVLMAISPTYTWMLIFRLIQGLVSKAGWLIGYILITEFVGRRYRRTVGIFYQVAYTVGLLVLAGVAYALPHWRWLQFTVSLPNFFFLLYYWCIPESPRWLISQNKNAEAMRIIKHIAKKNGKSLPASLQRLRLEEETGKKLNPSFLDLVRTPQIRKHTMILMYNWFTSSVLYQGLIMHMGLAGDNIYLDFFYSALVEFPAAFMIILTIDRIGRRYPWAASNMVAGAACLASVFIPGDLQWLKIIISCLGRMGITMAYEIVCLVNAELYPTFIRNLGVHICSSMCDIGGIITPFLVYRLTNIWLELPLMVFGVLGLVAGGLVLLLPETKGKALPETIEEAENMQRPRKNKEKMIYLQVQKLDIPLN
As to the kind of experiment: Cellular uptake into OCT2-overexpressing HEK293 cells vs EV control cells (HPLC-MS/MS). The settings on record: for K m (±SEM) / v max (±SEM): OCT2, net uptake, Michaelis–Menten; for higher v max of one enantiomer over the other, OCT2: label = enantiomer with higher v max; for uptake ratio OCT2 (transporter-overexpressing cells over EV control cells): mean (±SD, N): 2 min, HEK293.

The target of data set [4] is T4, MATE2-K (SLC47A2) (Homo sapiens, UniProt Q86VL8). In words: in vitro. The settings on record: pH 7.4.
T4 sequence (Q86VL8 1-566 isoform Q86VL8-3): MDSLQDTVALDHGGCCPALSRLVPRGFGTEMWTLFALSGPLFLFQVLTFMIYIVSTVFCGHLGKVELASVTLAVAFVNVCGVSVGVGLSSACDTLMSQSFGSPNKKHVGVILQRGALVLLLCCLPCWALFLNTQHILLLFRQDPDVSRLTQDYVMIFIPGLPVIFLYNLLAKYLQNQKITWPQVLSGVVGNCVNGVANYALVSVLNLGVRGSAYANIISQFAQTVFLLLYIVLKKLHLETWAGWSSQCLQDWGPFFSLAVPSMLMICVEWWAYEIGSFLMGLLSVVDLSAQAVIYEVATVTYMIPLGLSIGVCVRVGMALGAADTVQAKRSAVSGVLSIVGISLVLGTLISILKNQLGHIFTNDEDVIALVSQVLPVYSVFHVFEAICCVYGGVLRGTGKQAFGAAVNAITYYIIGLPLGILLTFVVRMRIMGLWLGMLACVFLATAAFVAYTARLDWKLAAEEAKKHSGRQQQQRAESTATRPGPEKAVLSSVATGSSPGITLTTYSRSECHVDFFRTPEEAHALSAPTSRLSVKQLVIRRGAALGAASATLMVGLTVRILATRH
In data set [5] the target is T5, OCT3 (SLC22A3) (Homo sapiens, UniProt O75751).
T5 sequence (O75751 1-556): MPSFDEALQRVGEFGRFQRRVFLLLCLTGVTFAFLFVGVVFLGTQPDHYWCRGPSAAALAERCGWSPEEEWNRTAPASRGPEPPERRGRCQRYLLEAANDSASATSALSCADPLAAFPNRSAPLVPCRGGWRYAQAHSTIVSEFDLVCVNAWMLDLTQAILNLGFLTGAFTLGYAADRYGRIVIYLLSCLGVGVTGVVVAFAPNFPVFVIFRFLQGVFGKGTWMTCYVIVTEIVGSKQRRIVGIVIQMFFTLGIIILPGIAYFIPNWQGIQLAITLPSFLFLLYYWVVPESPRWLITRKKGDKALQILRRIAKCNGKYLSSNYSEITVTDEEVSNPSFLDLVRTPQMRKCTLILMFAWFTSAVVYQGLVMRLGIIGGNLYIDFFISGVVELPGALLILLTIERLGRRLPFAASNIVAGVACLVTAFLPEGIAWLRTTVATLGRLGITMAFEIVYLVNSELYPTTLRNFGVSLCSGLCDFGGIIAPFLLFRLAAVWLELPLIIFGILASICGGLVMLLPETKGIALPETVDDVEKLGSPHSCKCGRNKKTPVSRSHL
In words: Cellular uptake into OCT3-overexpressing HEK293 cells vs EV control cells (HPLC-MS/MS). The settings on record: for stereoselectivity OCT3 (uptake ratio of the more strongly transported enantiomer divided by that of the other): label = favoured enantiomer; for uptake ratio OCT3 (transporter-overexpressing cells over EV control cells): mean (±SD, N): 2 min, HEK293.

The target in data set [6] is T3, OCT2 (SLC22A2). In words: in vitro. Conditions: pH 7.4.
Data set [7] has as its target T1, OCT1 (SLC22A1). In words: Cellular uptake into OCT1-overexpressing HEK293 cells vs EV control cells (HPLC-MS/MS). The settings on record: for uptake ratio OCT1 (transporter-overexpressing cells over EV control cells): mean (±SD, N): 2 min, HEK293.
Data set [8] concerns the target T4, MATE2-K (SLC47A2). As to the kind of experiment: Cellular uptake into MATE2-K-overexpressing HEK293 cells vs EV control cells (HPLC-MS/MS). The settings on record: for uptake ratio MATE2K (transporter-overexpressing cells over EV control cells): mean (±SD, N): 2.5 μM substrate, 1 min, 30 mM NH4Cl preincubation, HEK293.
The target of data set [9] is T2, MATE1 (SLC47A1). In words: Cellular uptake into MATE1-overexpressing HEK293 cells vs EV control cells (HPLC-MS/MS). The settings on record: for uptake ratio MATE1 (transporter-overexpressing cells over EV control cells): mean (±SD, N): 2.5 μM substrate, 1 min, 30 mM NH4Cl preincubation, HEK293.
Where [10] appears, read: 2.5 μM substrate (§), listed as (S)-(+)-2-amino-1-Pentanol.
Setting [11] is: listed as (S)-(+)-2-amino-1-Pentanol.
[12] abbreviates: 2.5 μM substrate (§), listed as L-tert-leucinol.
Setting [13] is: uptake ratio ≥2 = notable transport.

Regarding `CCCC[C@@H](N)CO` [(R)-(−)-2-amino-1-hexanol], the selectivity ratio at 2 min in data set [1] was determined as 1.1. The selectivity ratio at 1 min in [2] was 1.2. In addition, in [3], the “K m (±SEM)” value is listed as 59 (±11) μM; the “v max (±SEM)” value is on record as 1342 (±84) ^b pmol/mg protein/min; the “higher v max of one enantiomer over the other, OCT2” value (shortened to “higher v max … over the other, OCT2”) is reported as 1.7 fold. Also, the selectivity ratio at 1 min in [4] came to 1.3.
Regarding `CC(C)C[C@@H](N)CO` [(R)-(−)-leucinol], the “stereoselectivity OCT3 (uptake ratio of the more strongly transported enantiomer divided by that of the other)” value in [5] was 1.4-fold for (R). Moreover, in data set [2], the selectivity ratio at 1 min came to 1.1.
Take `CC(C)(C)[C@@H](N)CO` [(R)-(−)-tert-leucinol]: the selectivity ratio at 1 min in data set [2] was 1.3; in [4], 1.5.
With `CCCC[C@H](N)CO` [(S)-(+)-2-amino-1-hexanol], the “stereoselectivity OCT3 (uptake ratio of the more strongly transported enantiomer divided by that of the other)” value in data set [5] was 1.3-fold for (S). Further, the selectivity ratio at 2 min in data set [6] was 1.3. For the same compound, in [3], the “K m (±SEM)” value is on record as 39 (±12) μM and the “v max (±SEM)” value was 786 (±72) ^b pmol/mg protein/min.
As for `CCC[C@H](N)CO` [(S)-(+)-2-amino-1-pentanol], the “uptake ratio OCT1 (transporter-overexpressing cells over EV control cells): mean (±SD, N)” value (“uptake ratio OCT1 … (±SD, N)” for short) in data set [7] (2.5 μM substrate (§)) is reported as 1.0 (0.3, 4); in [7] (setting [10]) it was 1.0. For the same compound, the “uptake ratio MATE2K (transporter-overexpressing cells over EV control cells): mean (±SD, N)” value (shortened to “uptake ratio MATE2K … (±SD, N)”) in [8] is 1.5 (0.4, 4); in [8] (setting [11]) it was 1.5. Moreover, the “uptake ratio OCT3 (transporter-overexpressing cells over EV control cells): mean (±SD, N)” value (from here on “uptake ratio OCT3 … (±SD, N)”) is recorded as 1.1 (0.2, 4) in data set [5] (2.5 μM substrate (§)) and 1.1 in data set [5] (setting [10]). For the same compound, the “stereoselectivity OCT3 (uptake ratio of the more strongly transported enantiomer divided by that of the other)” value in data set [5] is listed as 1.1-fold for (S). Moreover, the selectivity ratio at 2 min in data set [6] was determined as 1.2. Further, the “uptake ratio OCT2 (transporter-overexpressing cells over EV control cells): mean (±SD, N)” value (shortened to “uptake ratio OCT2 … (±SD, N)”) in [3] (2.5 μM substrate (§)) is given as 6.0 (1.7, 4) ^b; in [3] (setting [10]), 6.0. In addition, the “K m (±SEM)” value in data set [3] was 245 (±83) μM; in data set [3] (listed as (S)-2-amino-1-pentanol), 245 µM. For the same compound, the “v max (±SEM)” value in data set [3] is 2342 (±290) ^a pmol/mg protein/min. Further, the “higher v max … over the other, OCT2” value in data set [3] is recorded as 1.6 fold. Moreover, the “uptake ratio MATE1 (transporter-overexpressing cells over EV control cells): mean (±SD, N)” value (“uptake ratio MATE1 … (±SD, N)” below) was 1.1 (0.1, 4) in [9] and 1.1 in data set [9] (setting [11]).
Consider `CC(C)C[C@H](N)CO` [(S)-(+)-leucinol], for which, in data set [6], the selectivity ratio at 2 min came out at 1.2.
Take `CC(C)[C@@H](N)CO` [D-valinol]: the selectivity ratio at 2 min in [1] came to 1.3. For the same compound, the selectivity ratio at 1 min in data set [2] came to 1.4. In data set [3], the “K m (±SEM)” value is 329 (±190) μM and the “v max (±SEM)” value is recorded as 2488 (±573) pmol/mg protein/min.
`CC(C)(C)[C@H](N)CO` [L-tert-Leucinol]: the “uptake ratio OCT1 … (±SD, N)” value in data set [7] (2.5 μM substrate (§)) is recorded as 1.4 (0.4, 3); in data set [7] (setting [12]) it was 1.4. Also, the selectivity ratio at 2 min in data set [1] worked out at 1.3; in data set [6] it was 1.4. For the same compound, the “uptake ratio MATE2K … (±SD, N)” value is recorded as 0.9 (0.3, 3) in [8] and 0.9 in [8] (listed as L-tert-leucinol). The “uptake ratio OCT3 … (±SD, N)” value in data set [5] (2.5 μM substrate (§)) was 2.1 (0.5, 3); in [5] (setting [12]), 2.1. Also, the “stereoselectivity OCT3 (uptake ratio of the more strongly transported enantiomer divided by that of the other)” value in data set [5] is given as 1.9-fold for(S) ^a. Further, the “uptake ratio OCT2 … (±SD, N)” value in data set [3] (2.5 μM substrate (§)) was 10.8 (1.4, 3) ^b; in [3] (setting [12]) it was 10.8. Besides, the “uptake ratio MATE1 … (±SD, N)” value is 0.7 (0.2, 3) in data set [9] and 0.7 in [9] (listed as L-tert-leucinol).
On to `CC(C)[C@H](N)CO` [L-valinol], for which the “stereoselectivity OCT3 (uptake ratio of the more strongly transported enantiomer divided by that of the other)” value in data set [5] was 1.04-fold for (S). Also, the selectivity ratio at 2 min in data set [6] is 1.04. Also, in data set [3], the “K m (±SEM)” value was 362(±156) μM; the “v max (±SEM)” value is recorded as 4970 (±967) pmol/mg protein/min; the “higher v max … over the other, OCT2” value turned out to be 2.0 fold. The selectivity ratio at 1 min in [4] was found to be 1.5.
Consider `CC(N)CN(CC(C)N)CC(C)N` (stereo not shown) [tris(2-aminopropyl)amine], for which, in [7] (10 μM substrate), the “uptake ratio OCT1 … (±SD, N)” value is “- ^d”. Moreover, the “substrate activity at OCT1 (in words)” value in [7] (setting [13]) is recorded as “did not show any substrate activity”. Moreover, the “uptake ratio MATE2K … (±SD, N)” value in data set [8] is reported as “- ^d”. Besides, in [8] (setting [13]), the “substrate activity at MATE2-K (in words)” value is “did not show any substrate activity”. Also, the “uptake ratio OCT3 … (±SD, N)” value in data set [5] (10 μM substrate) was “- ^d”. Further, in data set [5] (setting [13]), the “substrate activity at OCT3 (in words)” value is “did not show any substrate activity”. Moreover, the “uptake ratio OCT2 … (±SD, N)” value in data set [3] (10 μM substrate) is recorded as “- ^d”. For the same compound, the “substrate activity at OCT2 (in words)” value in data set [3] (setting [13]) is listed as “did not show any substrate activity”. Besides, the “uptake ratio MATE1 … (±SD, N)” value in [9] was “- ^d”. Besides, in data set [9] (setting [13]), the “substrate activity at MATE1 (in words)” value was “did not show any substrate activity”.
